Measurements as given in PMC9147192, “Small Molecule Arranged Thermal Proximity Coaggregation (smarTPCA)—A Novel Approach to Characterize Protein–Protein Interactions in Living Cells by Similar Isothermal Dose–Responses” (International Journal of Molecular Sciences, 2022).

Target: T1, PFAS (Homo sapiens, UniProt O15067)
T1 construct: endogenous in cells; host or cells: HL-60 (ATCC CCL-240)
T1 sequence (O15067 1-1338): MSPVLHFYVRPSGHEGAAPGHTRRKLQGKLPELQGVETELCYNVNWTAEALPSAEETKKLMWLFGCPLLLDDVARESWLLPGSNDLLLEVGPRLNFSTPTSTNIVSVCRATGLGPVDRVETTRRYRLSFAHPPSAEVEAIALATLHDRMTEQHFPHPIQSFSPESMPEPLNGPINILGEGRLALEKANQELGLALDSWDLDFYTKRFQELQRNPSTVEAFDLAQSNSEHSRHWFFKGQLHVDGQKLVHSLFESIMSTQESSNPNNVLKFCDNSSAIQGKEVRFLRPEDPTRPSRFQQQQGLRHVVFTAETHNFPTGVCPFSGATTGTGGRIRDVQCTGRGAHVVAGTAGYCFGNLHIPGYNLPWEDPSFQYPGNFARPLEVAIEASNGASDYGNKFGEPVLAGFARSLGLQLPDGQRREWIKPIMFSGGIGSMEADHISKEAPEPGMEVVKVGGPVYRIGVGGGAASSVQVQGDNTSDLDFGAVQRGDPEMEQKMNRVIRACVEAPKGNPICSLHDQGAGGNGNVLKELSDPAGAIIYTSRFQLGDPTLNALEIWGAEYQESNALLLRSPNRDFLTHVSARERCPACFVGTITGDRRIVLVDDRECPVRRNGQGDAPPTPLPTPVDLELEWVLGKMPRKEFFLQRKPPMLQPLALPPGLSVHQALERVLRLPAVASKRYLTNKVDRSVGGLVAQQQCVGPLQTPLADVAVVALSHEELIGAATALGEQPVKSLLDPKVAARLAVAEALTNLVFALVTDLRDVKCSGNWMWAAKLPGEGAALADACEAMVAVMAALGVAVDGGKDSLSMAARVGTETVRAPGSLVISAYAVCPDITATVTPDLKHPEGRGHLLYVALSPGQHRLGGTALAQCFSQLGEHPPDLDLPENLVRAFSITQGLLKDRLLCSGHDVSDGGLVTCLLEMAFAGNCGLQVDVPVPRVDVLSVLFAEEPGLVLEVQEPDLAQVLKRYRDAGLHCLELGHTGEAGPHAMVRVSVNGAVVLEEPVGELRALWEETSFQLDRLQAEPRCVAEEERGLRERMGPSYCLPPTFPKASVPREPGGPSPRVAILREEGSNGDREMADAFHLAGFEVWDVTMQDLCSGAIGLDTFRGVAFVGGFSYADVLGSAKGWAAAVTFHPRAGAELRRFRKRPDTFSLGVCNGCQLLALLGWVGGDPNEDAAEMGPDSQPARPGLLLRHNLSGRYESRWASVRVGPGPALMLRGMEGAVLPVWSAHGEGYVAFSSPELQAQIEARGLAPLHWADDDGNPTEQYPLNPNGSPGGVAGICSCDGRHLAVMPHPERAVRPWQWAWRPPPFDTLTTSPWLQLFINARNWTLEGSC
Assay: TPP-CCR in living HL-60 cells
Assay type: cell-based

[1] = living HL-60 cells, […] °C, TMT-MS

Compound: Cc1cnc(Nc2ccc(F)cc2Cl)nc1-c1c[nH]c(C(=O)N[C@H](CO)c2cccc(Cl)c2)c1 [ERK 11e]
- Hill slope (TPP-CCR, living cells, PFAS): 0.30
- EC50 [1]: 1170 nM
- Hill slope (PFAS) [1]: 0.30
